# Data taken from US20260216349A1, “STABILIZED BIOPOLYMER COMPOSITION, THEIR MANUFACTURE AND USE” (BASE SE, priority 2023, published 2026).
# Settings: pH 7.4
# Procedure: A 10% (m/m) aqueous solution of the test substances (butronics as well as reference materials Kolliphor EL and HS15) is prepared in phosphate buffer pH 7.4. For each test substance and reference three 5 ml brown glass ampoules with screw caps are filled with 5 g of the prepared aqueous solution.
# The respective API (as for example Fenofibrate/Itraconazole/Nilotinib) to be analyzed is then added (about 30 mg-500 mg per 5 g of 10% test substance solution, enough that the added powder doesn't dissolve anymore) in order to obtain a supersaturated solution.
# After stirring for 72 h at room temperature, each sample is filtered through a 0.22 μm PVDF filter and the concentration of the respective API in the filtrate is quantified by HPLC.
# The average of the 3 replicates per API is calculated and the obtained concentrations are put in relation to Kolliphor EL, which is set to 100%.
substance,measurement,value
POE sorbitan monooleate [Polysorbate 80],Solubilization of small molecules (mean value in %),96%
